{
  "source": "paper PMC3034727",
  "about": "(PLoS ONE, 2011)",
  "key": {"[1]": {"target": "Hokkaido virus NA (Influenza A virus, UniProt Q7TER1)", "sequence (Q7TER1 entry or part of it, added parts left off)": "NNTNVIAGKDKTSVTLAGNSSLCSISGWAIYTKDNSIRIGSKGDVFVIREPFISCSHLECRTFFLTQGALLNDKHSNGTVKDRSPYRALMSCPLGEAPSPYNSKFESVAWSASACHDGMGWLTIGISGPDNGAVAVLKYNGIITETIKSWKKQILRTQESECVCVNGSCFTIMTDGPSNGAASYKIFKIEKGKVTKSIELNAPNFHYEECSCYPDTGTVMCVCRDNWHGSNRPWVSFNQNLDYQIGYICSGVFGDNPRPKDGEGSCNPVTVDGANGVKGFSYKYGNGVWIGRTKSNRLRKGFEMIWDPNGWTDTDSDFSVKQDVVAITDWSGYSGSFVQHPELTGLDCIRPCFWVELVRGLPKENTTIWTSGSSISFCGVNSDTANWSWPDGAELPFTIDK", "type": "biochemical, Influenza virus strain A/Hokkaido/15/02 H1N1"}, "[2]": {"target": "Construct 2 (recombinant Hokkaido N1 NA, GCN4-pLI stalk) (Influenza A virus, UniProt Q7TER1)", "sequence (Q7TER1 70-470)": "as the sequence (Q7TER1 entry or part of it, added parts left off) above", "type": "biochemical, Influenza virus strain A/Hokkaido/15/02 H1N1"}, "[3]": {"target": "Construct 4 (recombinant Hokkaido N1 NA, Tetrabrachion stalk) (Influenza A virus, UniProt Q7TER1)", "sequence (Q7TER1 70-470)": "as the sequence (Q7TER1 entry or part of it, added parts left off) above", "type": "biochemical, Influenza virus strain A/Hokkaido/15/02 H1N1"}, "[4]": {"target": "Construct 4: FLAG-tagged recombinant Hokkaido N1 neuraminidase with an artificial Tetrabrachion stalk (Staphylothermus marinus | influenza A virus A/Hokkaido/15/02 (H1N1))", "assay": "SEC"}},
  "note": "Several values for one entry are separate records, joined by “and”; a condition that tells them apart may be missing. Identical values can stand only once.",
  "data": [
    {"compound": "CC(=O)N[C@H]1[C@H]([C@H](O)[C@H](O)CO)OC(Oc2ccc3c(C)cc(=O)oc3c2)(C(=O)O)C[C@@H]1O", "note": "(stereo partly drawn) [MUNANA, 4-Methylumbelliferyl N-acetyl-a-D-Neuraminic acid]", "values": [
      {"measurement": "K m value for MUNANA", "setting": "[1]", "result": "24.1 µM and 24.1 ± 1.1 µM"},
      {"measurement": "K m value for MUNANA", "setting": "[2]", "result": "54.4 µM and 54.1 µM and 54.1 ± 4.4 µM"},
      {"measurement": "K m value for MUNANA", "setting": "[3]", "result": "34.7 µM and 34.7 ± 1.9 µM"}
    ]},
    {"compound": "Construct 4: FLAG-tagged recombinant Hokkaido N1 neuraminidase with an artificial Tetrabrachion stalk (enzyme)", "values": [
      {"measurement": "stoichiometry N", "setting": "[4]", "result": 4}
    ]}
  ]
}
